Data as given in patent publication US20250066363A1, “Bicyclic DGK Inhibitors” (Incyte Corporation, priority 2023, published 2025).
pIC50: −log10 of the molar value.

Legend:
DGKζ = DGKζ (Homo sapiens (Human), UniProt Q13574); assay: In vitro DGKζ inhibition assay (ADP-Glo); format: biochemical; conditions: second column of Table A, head printed DGKα, presumably DGKζ; His-tagged human recombinant DGKζ 0.4 nM, 30 μM ATP, 20 μM DLG
DGKα = DGKα (Homo sapiens (Human), UniProt P23743); assay: In vitro DGKα inhibition assay (ADP-Glo); format: biochemical; conditions: first column of Table A; His-tagged human recombinant DGKα 0.1 nM, 50 μM ATP, 20 μM DLG
Sequence of DGKα (P23743 whole entry): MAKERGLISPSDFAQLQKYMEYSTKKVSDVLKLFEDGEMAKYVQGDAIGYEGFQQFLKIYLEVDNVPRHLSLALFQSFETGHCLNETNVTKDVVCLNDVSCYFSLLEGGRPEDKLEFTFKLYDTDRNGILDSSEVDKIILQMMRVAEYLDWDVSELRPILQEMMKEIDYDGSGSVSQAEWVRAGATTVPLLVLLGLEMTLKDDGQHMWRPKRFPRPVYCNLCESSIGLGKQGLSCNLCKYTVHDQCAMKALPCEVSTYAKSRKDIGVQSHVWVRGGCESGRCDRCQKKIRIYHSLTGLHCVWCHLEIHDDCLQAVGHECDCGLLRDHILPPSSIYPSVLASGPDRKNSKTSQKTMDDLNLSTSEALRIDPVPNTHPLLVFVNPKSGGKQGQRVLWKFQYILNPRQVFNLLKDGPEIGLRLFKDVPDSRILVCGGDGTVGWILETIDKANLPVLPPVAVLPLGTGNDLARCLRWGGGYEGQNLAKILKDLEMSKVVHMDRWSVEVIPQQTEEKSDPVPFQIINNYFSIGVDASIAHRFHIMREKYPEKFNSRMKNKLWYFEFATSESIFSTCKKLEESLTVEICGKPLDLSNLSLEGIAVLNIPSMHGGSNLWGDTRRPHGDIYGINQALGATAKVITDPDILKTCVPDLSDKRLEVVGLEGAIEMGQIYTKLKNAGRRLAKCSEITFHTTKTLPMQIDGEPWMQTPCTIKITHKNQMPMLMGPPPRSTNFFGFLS

Sequence of DGKζ (Q13574 whole entry): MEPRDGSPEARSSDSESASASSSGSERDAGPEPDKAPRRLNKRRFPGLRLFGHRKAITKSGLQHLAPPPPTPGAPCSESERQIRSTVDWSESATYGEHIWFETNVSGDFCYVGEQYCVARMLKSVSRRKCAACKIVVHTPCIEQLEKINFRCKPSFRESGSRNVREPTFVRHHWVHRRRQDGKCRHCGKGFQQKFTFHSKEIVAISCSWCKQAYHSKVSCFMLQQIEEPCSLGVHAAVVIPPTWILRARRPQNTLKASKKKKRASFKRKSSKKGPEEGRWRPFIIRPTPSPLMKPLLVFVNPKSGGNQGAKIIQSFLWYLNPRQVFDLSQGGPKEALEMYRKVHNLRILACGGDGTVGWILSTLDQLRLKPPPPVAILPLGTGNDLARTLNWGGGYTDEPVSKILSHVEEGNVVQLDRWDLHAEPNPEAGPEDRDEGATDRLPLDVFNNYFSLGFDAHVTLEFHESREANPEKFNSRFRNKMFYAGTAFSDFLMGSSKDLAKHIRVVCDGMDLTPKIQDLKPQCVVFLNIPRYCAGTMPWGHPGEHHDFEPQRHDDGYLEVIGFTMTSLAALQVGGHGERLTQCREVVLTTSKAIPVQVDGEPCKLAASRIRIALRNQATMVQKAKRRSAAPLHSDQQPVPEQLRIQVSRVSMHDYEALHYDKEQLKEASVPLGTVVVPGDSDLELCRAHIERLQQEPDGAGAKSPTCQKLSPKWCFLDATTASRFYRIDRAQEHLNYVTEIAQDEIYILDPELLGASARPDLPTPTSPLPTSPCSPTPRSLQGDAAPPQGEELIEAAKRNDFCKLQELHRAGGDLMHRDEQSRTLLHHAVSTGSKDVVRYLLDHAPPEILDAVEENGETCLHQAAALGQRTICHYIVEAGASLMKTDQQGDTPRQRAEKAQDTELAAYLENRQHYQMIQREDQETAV

pIC50 (DGKζ) | pIC50 (DGKα) | SMILES
≥ 8.00 | ≥ 8.00 | CC(C)[C@H](c1ccc(Cl)cc1)N1C[C@H](C)N(c2nc(=O)n(C)c3c2ncn3CC2(O)CCCC2)C[C@H]1C [Example 58, 6-((2S,5R)-4-((R)-1-(4-chlorophenyl)-2-methylpropyl)-2,5-dimethylpiperazin-1-yl)-9-((1-hydroxycyclopentyl)methyl)-3-methyl-3,9-dihydro-2H-purin-2-one]
≥ 8.00 | ≥ 8.00 | CC[C@@H]1CN(c2nc(=O)n(C)c3c2nc(C)n3C[C@@H]2CCCO2)[C@@H](C)CN1[C@H](c1ccc(C(F)(F)F)cc1)C(C)C [Example 59, 6-((2S,5R)-5-Ethyl-2-methyl-4-((S)-2-methyl-1-(4-(trifluoromethyl)phenyl)propyl)piperazin-1-yl)-3,8-dimethyl-9-(((S)-tetrahydrofuran-2-yl)methyl)-3,9-dihydro-2H-purin-2-one]
≥ 8.00 | ≥ 8.00 | CC[C@@H]1CN(c2nc(=O)n(C)c3c2nc(C)n3C[C@@H]2CCCO2)[C@@H](C)CN1[C@@H](c1ccc(C(F)(F)F)cc1)C(C)C [Example 60, 6-((2S,5R)-5-ethyl-2-methyl-4-((R)-2-methyl-1-(4-(trifluoromethyl)phenyl)propyl)piperazin-1-yl)-3,8-dimethyl-9-(((S)-tetrahydrofuran-2-yl)methyl)-3,9-dihydro-2H-purin-2-one]
≥ 8.00 | ≥ 8.00 | CC[C@@H]1CN(c2nc(=O)n(C)c3c2nc(C)n3C[C@@H]2CCCO2)[C@@H](C)CN1[C@@H](C)c1ccc(C(F)(F)F)cc1 [Example 61, 6-((2S,5R)-5-Ethyl-2-methyl-4-((S)-1-(4-(trifluoromethyl)phenyl)ethyl)piperazin-1-yl)-3,8-dimethyl-9-(((S)-tetrahydrofuran-2-yl)methyl)-3,9-dihydro-2H-purin-2-one]
≥ 8.00 | ≥ 8.00 | CC[C@@H]1CN(c2nc(=O)n(C)c3c2nc(C)n3C[C@@H]2CCCO2)[C@@H](C)CN1[C@H](C)c1ccc(C(F)(F)F)cc1 [Example 62, 6-((2S,5R)-5-ethyl-2-methyl-4-((R)-1-(4-(trifluoromethyl)phenyl)ethyl)piperazin-1-yl)-3,8-dimethyl-9-(((S)-tetrahydrofuran-2-yl)methyl)-3,9-dihydro-2H-purin-2-one]
≥ 8.00 | ≥ 8.00 | CC[C@@H]1CN(c2nc(=O)n(C)c3c2nc(C)n3C[C@H]2OCC[C@@H]2O)[C@@H](C)CN1C(c1ccc(Cl)cc1)C1CC(F)(F)C1 (stereo partly drawn) [Example 65, 6-((2S,5R)-4-((4-Chlorophenyl)(3,3-difluorocyclobutyl)methyl)-5-ethyl-2-methylpiperazin-1-yl)-9-(((2R,3S)-3-hydroxytetrahydrofuran-2-yl)methyl)-3,8-dimethyl-3,9-dihydro-2H-purin-2-one]
≥ 8.00 | ≥ 8.00 | C[C@@H]1CN(c2nc(=O)n(C)c3c2ncn3CC2(O)CCC2)[C@@H](C)CN1C(c1ccc(Cl)cc1)C1CC(F)(F)C1 (stereo partly drawn) [Example 67, 6-((2S,5R)-4-((4-Chlorophenyl)(3,3-difluorocyclobutyl)methyl)-2,5-dimethylpiperazin-1-yl)-9-((1-hydroxycyclobutyl)methyl)-3-methyl-3,9-dihydro-2H-purin-2-one]
≥ 8.00 | ≥ 8.00 | CC[C@@H]1CN(c2nc(=O)n(C)c3c2nc(C)n3C[C@H]2OCC[C@@H]2O)[C@@H](C)CN1[C@@H](CC)c1ccc(C(F)(F)F)cc1 [Example 69, 6-((2S,5R)-5-Ethyl-2-methyl-4-((S)-1-(4-(trifluoromethyl)phenyl)propyl)piperazin-1-yl)-9-(((2R,3S)-3-hydroxytetrahydrofuran-2-yl)methyl)-3,8-dimethyl-3,9-dihydro-2H-purin-2-one]
≥ 8.00 | ≥ 8.00 | CC[C@@H]1CN(c2nc(=O)n(C)c3c2nc(C)n3C[C@H]2OCC[C@@H]2O)[C@@H](C)CN1[C@H](CC)c1ccc(C(F)(F)F)cc1 [Example 70, 6-((2S,5R)-5-ethyl-2-methyl-4-((R)-1-(4-(trifluoromethyl)phenyl)propyl)piperazin-1-yl)-9-(((2R,3S)-3-hydroxytetrahydrofuran-2-yl)methyl)-3,8-dimethyl-3,9-dihydro-2H-purin-2-one]
≥ 8.00 | ≥ 8.00 | CC[C@@H]1CN(c2nc(=O)n(C)c3c2nc(C)n3C[C@H]2OCC[C@H]2O)[C@@H](C)CN1[C@@H](CC)c1ccc(C(F)(F)F)cc1 [Example 71, 6-((2S,5R)-5-Ethyl-2-methyl-4-((S)-1-(4-(trifluoromethyl)phenyl)propyl)piperazin-1-yl)-9-(((2R,3R)-3-hydroxytetrahydrofuran-2-yl)methyl)-3,8-dimethyl-3,9-dihydro-2H-purin-2-one]
≥ 8.00 | ≥ 8.00 | CC[C@@H]1CN(c2nc(=O)n(C)c3c2nc(C)n3C[C@H]2OCC[C@H]2O)[C@@H](C)CN1[C@H](CC)c1ccc(C(F)(F)F)cc1 [Example 72, 6-((2S,5R)-5-ethyl-2-methyl-4-((R)-1-(4-(trifluoromethyl)phenyl)propyl)piperazin-1-yl)-9-(((2R,3R)-3-hydroxytetrahydrofuran-2-yl)methyl)-3,8-dimethyl-3,9-dihydro-2H-purin-2-one]
